Assay results published in ChEMBL document CHEMBL4396974, “Synthesis and evaluation of a novel quinoline-triazole analogs for antitubercular properties via molecular hybridization approach” (Bioorg Med Chem Lett, 2019).

What was measured:
Details in all cases: read-out: INH
[1] = Cytotoxicity against human HEK293 cells at 10 uM measured after 48 hrs by sulforhodamine B assay relative to control; assay type: cell-based
[2] = Cytotoxicity against human PC3 cells at 10 uM measured after 48 hrs by sulforhodamine B assay relative to control; assay type: cell-based, PC-3
[3] = Cytotoxicity against human SKOV3 cells at 10 uM measured after 48 hrs by sulforhodamine B assay relative to control; assay type: cell-based, SK-OV-3
[4] = Cytotoxicity against human PANC1 cells at 10 uM measured after 48 hrs by sulforhodamine B assay relative to control; assay type: cell-based, PANC-1
[5] = Cytotoxicity against human HeLa cells at 10 uM measured after 48 hrs by sulforhodamine B assay relative to control; assay type: cell-based
[6] = Cytotoxicity against human HeLa cells at 2 uM measured after 48 hrs by sulforhodamine B assay relative to control; assay type: cell-based
[7] = Cytotoxicity against human PC3 cells at 2 uM measured after 48 hrs by sulforhodamine B assay relative to control; assay type: cell-based, PC-3
[8] = Cytotoxicity against human SKOV3 cells at 2 uM measured after 48 hrs by sulforhodamine B assay relative to control; assay type: cell-based, SK-OV-3
[9] = Cytotoxicity against human PANC1 cells at 2 uM measured after 48 hrs by sulforhodamine B assay relative to control; assay type: cell-based, PANC-1
[10] = Cytotoxicity against human HEK293 cells at 2 uM measured after 48 hrs by sulforhodamine B assay relative to control; assay type: cell-based

Row | SMILES | cytotoxicity at 48 h, 10 µM [1] [%] | cytotoxicity at 48 h, 10 µM [2] [%] | cytotoxicity at 48 h, 10 µM [3] [%] | cytotoxicity at 48 h, 10 µM [4] [%] | cytotoxicity at 48 h, 10 µM [5] [%] | cytotoxicity at 48 h, 2 µM [6] [%] | cytotoxicity at 48 h, 2 µM [7] [%] | cytotoxicity at 48 h, 2 µM [8] [%] | cytotoxicity at 48 h, 2 µM [9] [%] | cytotoxicity at 48 h, 2 µM [10] [%]
1 | CCCCCc1cn(C(c2ccccc2)c2cc3cc(Br)ccc3nc2OC)nn1 (stereo not given) | -2 | 11.4 | 10.5 | 5.07 | -9.81 |  |  |  |  | 
2 | COc1nc2ccc(Br)cc2cc1C(c1ccccc1)n1cc(-c2ccc(Br)cc2)nn1 (stereo not given) | 6.28 | 7.43 | 13.4 | 10.4 | 6.92 |  |  |  |  | 
3 | COc1nc2ccc(Br)cc2cc1C(c1ccccc1)n1cc(-c2ccc(OC(F)(F)F)cc2)nn1 (stereo not given) | 5.8 | 21.6 | 14.8 | 11.7 | -2.24 |  |  |  |  | 
4 | COc1nc2ccc(Br)cc2cc1C(c1ccccc1)n1cc(C2CC2)nn1 (stereo not given) | 8.22 | 22.6 | 3.52 | 21.8 | -5.84 |  |  |  |  | 
5 | COc1nc2ccc(Br)cc2cc1C(c1ccccc1)n1cc(-c2ccc(F)cc2)nn1 (stereo not given) | 4.04 | 16.4 | 14.3 | 14.9 | 4.27 |  |  |  |  | 
6 | COc1nc2ccc(Br)cc2cc1C(c1ccccc1)n1cc(CCCO)nn1 (stereo not given) | 27.4 | 14.7 | 13.8 | 25.5 | 11.3 |  |  |  |  | 
7 | CCCCCCc1cn(C(c2ccccc2)c2cc3cc(Br)ccc3nc2OC)nn1 (stereo not given) | -3.17 | 2.32 | 7.17 | 6.08 | -0.97 |  |  |  |  | 
8 | COc1nc2ccc(Br)cc2cc1C(c1ccccc1)n1cc(CCCCCO)nn1 (stereo not given) | 7.96 | 12.9 | 8.69 | 19.6 | 1.08 |  |  |  |  | 
9 | COc1nc2ccc(Br)cc2cc1C(c1ccccc1)n1cc(-c2ccccc2C(F)(F)F)nn1 (stereo not given) | 14.3 | 17.4 | 9.55 | 11.4 | -1.3 |  |  |  |  | 
10 | CCCCc1cn(C(c2ccccc2)c2cc3cc(Br)ccc3nc2OC)nn1 (stereo not given) | -3.47 | 5.54 | 11.1 | 5.46 | -2.87 |  |  |  |  | 
11 | CCOC(=O)c1cn(C(c2ccccc2)c2cc3cc(Br)ccc3nc2OC)nn1 (stereo not given) | 2 | 16.1 | 2.01 | 15.4 | -3.67 |  |  |  |  | 
12 | COc1nc2ccc(Br)cc2cc1C(c1ccccc1)n1cc(CCO)nn1 (stereo not given) | 4.54 | 15.5 | 8.46 | 19.8 | 0.85 |  |  |  |  | 
13 | COc1nc2ccc(Br)cc2cc1C(c1ccccc1)n1cc(-c2ccccc2F)nn1 (stereo not given) | 3.97 | 13.4 | 7.33 | 14.7 | 14.1 |  |  |  |  | 
14 | COc1nc2ccc(Br)cc2cc1C(c1ccccc1)n1cc(CO)nn1 (stereo not given) | 11.5 | 4.65 | 3.23 | 15 | 0.25 |  |  |  |  | 
15 | CCCc1cn(C(c2ccccc2)c2cc3cc(Br)ccc3nc2OC)nn1 (stereo not given) | 0.85 | 8.3 | 11.2 | 11.3 | -2.25 |  |  |  |  | 
16 | COc1nc2ccc(Br)cc2cc1C(c1ccccc1)n1cc(-c2ccccc2)nn1 (stereo not given) | 8.25 | 5.97 | 13.7 | 30.1 | 13.9 |  |  |  |  | 
17 | COc1nc2ccc(Br)cc2cc1C(c1ccccc1)n1cc(-c2cccc(F)c2)nn1 (stereo not given) | 6.84 | 14.6 | 12.7 | 15.5 | 9.04 |  |  |  |  | 
18 | CCCCCCCc1cn(C(c2ccccc2)c2cc3cc(Br)ccc3nc2OC)nn1 (stereo not given) | 0.17 | 4.42 | 10.5 | 16.6 | 9.7 |  |  |  |  | 
19 | CCCCCCCCc1cn(C(c2ccccc2)c2cc3cc(Br)ccc3nc2OC)nn1 (stereo not given) | 14.6 | 2.27 | 2.06 | 12.1 | 0.1 |  |  |  |  | 
20 | COc1cccc2c1C(=O)c1c(O)c3c(c(O)c1C2=O)C[C@@](O)(C(=O)CO)C[C@@H]3O[C@H]1C[C@H](N)[C@H](O)[C@H](C)O1 [DOXORUBICIN] |  |  |  |  |  | 74.1 | 86.7 | 83.3 | 96.1 | 75.6
